Structures can show the parent of a compound that is named as a salt.
Tests used:
Type in all cases: biochemical
[1] = target: c-Abl (His-tagged recombinant human ABL1) (Homo sapiens (Human), UniProt P00519); assay: c-abl Kinase Assay (ADP-Glo); conditions: ATP (25 μM), Abltide substrate
Procedure, shortened: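 His-tagged human ABL1 (0.25 ng/μl), Abltide (0.01 μg/μl) and ATP (25 μM), each at its added concentration, reacted with compound (0.5% DMSO) for 30 min at 30 °C. Buffer was 50 mM HEPES pH 7.5, 10 mM MgCl2, 1 mM EGTA, 0.05% BSA, 0.01% Triton X-100, 2 mM DTT. ADP formed was read by ADP-Glo luminescence, and IC50 was fitted from percent inhibition across concentrations.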

LRRK2 (WT) = LRRK2 (WT) (Homo sapiens (Human), UniProt Q5S007); assay: LRRK2 Kinase Assay (Adapta); conditions: 70 μM ATP, LRRKtide substrate
LRRK2 (WT), sequence (Q5S007 whole entry): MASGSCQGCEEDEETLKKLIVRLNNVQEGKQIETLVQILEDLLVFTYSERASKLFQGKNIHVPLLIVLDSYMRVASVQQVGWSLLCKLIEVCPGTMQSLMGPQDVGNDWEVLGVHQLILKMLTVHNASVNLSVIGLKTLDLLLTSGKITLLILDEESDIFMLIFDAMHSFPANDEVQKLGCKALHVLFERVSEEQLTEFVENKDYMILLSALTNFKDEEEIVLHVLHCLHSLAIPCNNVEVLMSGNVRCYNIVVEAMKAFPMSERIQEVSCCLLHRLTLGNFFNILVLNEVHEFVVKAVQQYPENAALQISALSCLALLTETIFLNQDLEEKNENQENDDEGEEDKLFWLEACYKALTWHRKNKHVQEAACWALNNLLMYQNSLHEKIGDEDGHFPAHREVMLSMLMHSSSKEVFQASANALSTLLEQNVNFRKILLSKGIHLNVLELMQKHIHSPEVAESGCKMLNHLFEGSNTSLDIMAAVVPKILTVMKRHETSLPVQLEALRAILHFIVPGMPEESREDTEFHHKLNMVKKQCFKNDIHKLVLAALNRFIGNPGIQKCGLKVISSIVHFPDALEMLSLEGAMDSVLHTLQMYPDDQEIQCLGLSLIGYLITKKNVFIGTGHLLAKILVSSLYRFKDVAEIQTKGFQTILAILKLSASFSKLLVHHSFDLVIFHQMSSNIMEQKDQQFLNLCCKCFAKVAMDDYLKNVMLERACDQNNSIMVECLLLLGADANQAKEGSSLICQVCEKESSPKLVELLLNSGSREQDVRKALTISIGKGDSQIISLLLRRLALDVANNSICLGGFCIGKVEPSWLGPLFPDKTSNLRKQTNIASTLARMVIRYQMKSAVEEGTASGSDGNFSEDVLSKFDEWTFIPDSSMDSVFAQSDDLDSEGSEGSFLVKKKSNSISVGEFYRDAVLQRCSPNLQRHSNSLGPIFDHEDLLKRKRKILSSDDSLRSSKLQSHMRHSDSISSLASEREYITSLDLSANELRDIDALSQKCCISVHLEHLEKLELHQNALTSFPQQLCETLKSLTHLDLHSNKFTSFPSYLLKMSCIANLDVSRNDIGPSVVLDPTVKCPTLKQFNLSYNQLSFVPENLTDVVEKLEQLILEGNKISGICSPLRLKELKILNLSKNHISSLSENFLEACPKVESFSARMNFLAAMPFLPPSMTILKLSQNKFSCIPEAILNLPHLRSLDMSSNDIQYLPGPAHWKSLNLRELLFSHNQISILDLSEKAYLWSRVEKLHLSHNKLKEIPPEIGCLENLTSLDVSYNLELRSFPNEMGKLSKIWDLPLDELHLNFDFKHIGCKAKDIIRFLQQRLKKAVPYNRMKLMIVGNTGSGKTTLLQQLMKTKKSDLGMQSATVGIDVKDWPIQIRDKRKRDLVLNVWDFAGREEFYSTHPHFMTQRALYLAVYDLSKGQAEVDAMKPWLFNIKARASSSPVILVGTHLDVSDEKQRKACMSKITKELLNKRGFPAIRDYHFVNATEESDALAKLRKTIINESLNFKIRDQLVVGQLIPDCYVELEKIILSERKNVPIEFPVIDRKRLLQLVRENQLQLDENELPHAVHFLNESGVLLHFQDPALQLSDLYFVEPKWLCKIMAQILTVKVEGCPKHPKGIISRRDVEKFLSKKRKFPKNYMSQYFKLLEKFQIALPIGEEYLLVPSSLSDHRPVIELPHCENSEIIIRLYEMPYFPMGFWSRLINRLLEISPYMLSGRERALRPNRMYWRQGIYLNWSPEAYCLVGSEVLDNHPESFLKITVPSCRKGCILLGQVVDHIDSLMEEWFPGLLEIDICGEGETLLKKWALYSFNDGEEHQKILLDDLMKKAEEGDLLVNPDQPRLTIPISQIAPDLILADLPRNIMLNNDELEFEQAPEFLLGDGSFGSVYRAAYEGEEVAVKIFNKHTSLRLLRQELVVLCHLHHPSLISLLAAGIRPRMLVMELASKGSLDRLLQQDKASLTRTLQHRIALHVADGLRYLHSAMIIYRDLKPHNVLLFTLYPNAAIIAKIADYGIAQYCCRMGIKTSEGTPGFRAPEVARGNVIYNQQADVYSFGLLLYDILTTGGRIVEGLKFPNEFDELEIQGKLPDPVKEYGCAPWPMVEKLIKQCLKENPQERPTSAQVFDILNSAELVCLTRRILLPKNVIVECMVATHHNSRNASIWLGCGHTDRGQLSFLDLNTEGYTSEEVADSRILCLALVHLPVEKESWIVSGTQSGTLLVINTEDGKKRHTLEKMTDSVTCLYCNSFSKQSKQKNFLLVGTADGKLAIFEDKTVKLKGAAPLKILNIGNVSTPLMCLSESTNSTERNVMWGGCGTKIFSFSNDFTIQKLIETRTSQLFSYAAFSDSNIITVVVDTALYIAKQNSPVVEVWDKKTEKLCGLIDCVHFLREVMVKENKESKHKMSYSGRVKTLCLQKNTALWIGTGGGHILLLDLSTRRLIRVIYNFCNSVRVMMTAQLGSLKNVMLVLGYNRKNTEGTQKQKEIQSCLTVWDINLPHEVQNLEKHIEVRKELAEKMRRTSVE
Procedure, shortened: (§1)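 Adapta TR-FRET kinase assay with LRRKtide substrate in 50 mM Tris pH 8.5, 0.01% BRIJ-35, 10 mM MgCl2, 1 mM EGTA, 0.02% NaN3. ATP at Km: 70 μM for WT LRRK2, 100 μM for G2019S. Reaction 1 h at room temperature; after 60 min with detection mix, 665/615 nm emission ratio read.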

LRRK2 G2019S = LRRK2 G2019S (Homo sapiens (Human), UniProt Q5S007, G2019S); assay: LRRK2 G2019S Kinase Assay (Adapta); conditions: 100 μM ATP, LRRKtide substrate; read-out: LRRK2_G2019S IC50
LRRK2 G2019S, sequence (Q5S007 whole entry G2019S): as the sequence (Q5S007 whole entry) above, with G2019S counted along it
Procedure, shortened: as §1

c-Abl (His-tagged recombinant human ABL1), sequence (P00519 whole entry): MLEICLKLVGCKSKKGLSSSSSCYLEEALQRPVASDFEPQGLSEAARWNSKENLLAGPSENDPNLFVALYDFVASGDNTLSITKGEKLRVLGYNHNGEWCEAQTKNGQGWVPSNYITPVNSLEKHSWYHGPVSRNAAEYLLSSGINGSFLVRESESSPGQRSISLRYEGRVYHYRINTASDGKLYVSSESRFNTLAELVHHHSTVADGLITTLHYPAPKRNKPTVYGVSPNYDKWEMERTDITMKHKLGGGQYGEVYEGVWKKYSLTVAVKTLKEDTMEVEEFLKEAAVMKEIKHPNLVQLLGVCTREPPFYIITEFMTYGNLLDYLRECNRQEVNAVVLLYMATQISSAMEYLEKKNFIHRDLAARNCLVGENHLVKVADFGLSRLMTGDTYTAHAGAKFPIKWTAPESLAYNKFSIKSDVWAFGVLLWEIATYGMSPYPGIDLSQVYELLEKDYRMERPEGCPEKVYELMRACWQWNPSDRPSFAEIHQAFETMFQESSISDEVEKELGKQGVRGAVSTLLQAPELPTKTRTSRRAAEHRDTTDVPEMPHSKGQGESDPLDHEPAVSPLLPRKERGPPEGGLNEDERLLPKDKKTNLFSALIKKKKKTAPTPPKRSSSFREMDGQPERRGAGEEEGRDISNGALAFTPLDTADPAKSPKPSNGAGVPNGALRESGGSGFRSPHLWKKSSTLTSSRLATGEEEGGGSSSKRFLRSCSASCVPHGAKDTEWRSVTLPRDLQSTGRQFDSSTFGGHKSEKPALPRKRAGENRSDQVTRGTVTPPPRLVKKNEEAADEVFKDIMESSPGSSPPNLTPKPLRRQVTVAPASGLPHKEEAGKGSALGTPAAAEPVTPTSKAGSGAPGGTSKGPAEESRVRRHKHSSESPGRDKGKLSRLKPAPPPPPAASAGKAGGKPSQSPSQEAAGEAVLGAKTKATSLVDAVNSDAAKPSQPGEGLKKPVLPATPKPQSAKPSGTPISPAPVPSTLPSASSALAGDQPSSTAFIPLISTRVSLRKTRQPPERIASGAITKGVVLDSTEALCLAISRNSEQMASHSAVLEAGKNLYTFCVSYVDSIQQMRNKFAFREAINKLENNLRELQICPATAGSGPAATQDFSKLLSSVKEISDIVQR

IC50 [1] [nM]	IC50 (LRRK2 (WT)) [nM]	IC50 (LRRK2 G2019S) [nM]	Structure (SMILES)
< 10	> 1000	101 to 1000	COCc1c(F)cccc1-c1ccc2nc(NC(=O)[C@@H]3C[C@@H]3F)cn2c1 [Example 64, (1S,2S)-2-fluoro-N-(6-(3-fluoro-2-(methoxymethyl)phenyl)imidazo[1,2-a]pyridin-2-yl)cyclopropanecarboxamide]
10 to 100	> 1000	101 to 1000	COCCOCc1c(F)cccc1-c1ccc2nc(NC(=O)[C@@H]3C[C@@H]3F)cn2c1 [Example 82, (1S,2S)-2-fluoro-N-(6-(3-fluoro-2-((2-methoxyethoxy)methyl)phenyl)imidazo[1,2-a]pyridin-2-yl)cyclopropanecarboxamide]
< 10	101 to 1000	101 to 1000	Cc1ccc(-n2cccn2)cc1-c1ccc2nc(NC(=O)[C@@H]3C[C@@H]3F)cn2c1 [Example 56, (1S,2S)-2-fluoro-N-(6-(2-methyl-5-(1H-pyrazol-1-yl)phenyl)imidazo[1,2-a]pyridin-2-yl)cyclopropane-1-carboxamide]
101 to 1000	> 1000	> 1000	Cc1c(F)cncc1-c1ccc2nc(NC(=O)[C@@H]3C[C@@H]3F)c(C)n2c1 [Example 10, (1S,2S)-2-fluoro-N-(6-(5-fluoro-4-methylpyridin-3-yl)-3-methylimidazo[1,2-a]pyridin-2-yl)cyclopropane-1-carboxamide]
< 10	101 to 1000	101 to 1000	Cc1c(F)cncc1-c1ccc2nc(NC(=O)[C@@H]3C[C@@H]3F)cn2c1 [Example 14, (1S,2S)-2-fluoro-N-(6-(5-fluoro-4-methylpyridin-3-yl)imidazo[1,2-a]pyridin-2-yl)cyclopropane-1-carboxamide]
< 10	101 to 1000	101 to 1000	Cc1ccc(-c2cc[nH]n2)cc1-c1ccc2nc(NC(=O)[C@@H]3C[C@@H]3F)cn2c1 [Example 28, (1S,2S)-2-fluoro-N-(6-(2-methyl-5-(1H-pyrazol-3-yl)phenyl)imidazo[1,2-a]pyridin-2-yl)cyclopropane-1-carboxamide]
10 to 100	101 to 1000	10 to 100	Cc1c(F)cccc1-c1ccc2nc(NC(=O)C3CC(F)C3)cn2c1 (stereo not drawn) [Example 78, 3-fluoro-N-(6-(3-fluoro-2-methylphenyl)imidazo[1,2-a]pyridin-2-yl)cyclobutanecarboxamide]
< 10	10 to 100	10 to 100	COc1c(F)cccc1-c1ccc2nc(NC(=O)[C@@H]3C[C@@H]3F)cn2c1 [Example 59, (1S,2S)-2-fluoro-N-(6-(3-fluoro-2-methoxyphenyl)imidazo[1,2-a]pyridin-2-yl)cyclopropanecarboxamide]
< 10	10 to 100	10 to 100	Cc1c(F)cccc1-c1ccc2nc(NC(=O)[C@@H]3C[C@@H]3F)cn2c1 [Example 1, (1S,2S)-2-fluoro-N-(6-(3-fluoro-2-methylphenyl)imidazo[1,2-a]pyridin-2-yl)cyclopropane-1-carboxamide Hydrochloride]
< 10	10 to 100	10 to 100	Cc1c(F)cc(N)cc1-c1ccc2nc(NC(=O)[C@@H]3C[C@@H]3F)cn2c1 [Example 50, (1S,2S)—N-(6-(5-amino-3-fluoro-2-methylphenyl)imidazo[1,2-a]pyridin-2-yl)-2-fluorocyclopropane-1-carboxamide]
< 10	101 to 1000	10 to 100	Cc1cccc(Cl)c1-c1ccc2nc(NC(=O)[C@@H]3C[C@@H]3F)cn2c1 [Example 52, (1S,2S)—N-(6-(2-chloro-6-methylphenyl)imidazo[1,2-a]pyridin-2-yl)-2-fluorocyclopropane-1-carboxamide]
> 1000	> 1000	> 1000	CNCc1c(F)cccc1-c1ccc2nc(NC(=O)[C@@H]3C[C@@H]3F)cn2c1 [Example 80, (1S,2S)-2-fluoro-N-(6-(3-fluoro-2-((methylamino)methyl)phenyl)imidazo[1,2-a]pyridin-2-yl)cyclopropanecarboxamide]

From patent US11098044B2, “Imidazopyridinyl compounds and use thereof for treatment of neurodegenerative disorders” (1ST Biotherapeutics, Inc., priority 2019, dated 2021)
